According to the NIST ThermoML archive (doi:10.1016/j.jct.2016.02.016):

Tests used:
[1] = 101.33 kPa, Liquid; for speed of sound: Sing-around technique in a fixed-path interferometer; for mass density: Vibrating tube method
[2] = refractive index (Na D-line) (dimensionless); conditions: 101.33 kPa, Liquid, Standard Abbe refractometry
[3] = xn = mol fraction of the nth substance listed; conditions: 100 kPa, Liquid; for speed of sound: Frequency=3 MHz, Sing-around technique in a fixed-path interferometer; for mass density: Vibrating tube method
[4] = refractive index (Na D-line) (dimensionless); xn = mol fraction of the nth substance listed; conditions: 100 kPa, Liquid, Standard Abbe refractometry

CCCC(C)=O [pentan-2-one]
Conditions	mass density, 293.15 K [kg/m3]	mass density, 298.15 K [kg/m3]	mass density, 303.15 K [kg/m3]	refractive index, 293.15 K	refractive index, 298.15 K	refractive index, 303.15 K	speed of sound, 293.15 K [m/s]	speed of sound, 298.15 K [m/s]	speed of sound, 303.15 K [m/s]
[1]	806.83	801.99	796.73	–	–	–	1232.4	1211.9	1191.7
[2]	–	–	–	1.39026	1.38793	1.38523	–	–	–

CN(C)C=O [dimethylformamide] + CCCC(C)=O
x1 = 1
Conditions	mass density, 293.15 K [kg/m3]	mass density, 298.15 K [kg/m3]	mass density, 303.15 K [kg/m3]	refractive index, 293.15 K	refractive index, 298.15 K	refractive index, 303.15 K	speed of sound, 293.15 K [m/s]	speed of sound, 298.15 K [m/s]	speed of sound, 303.15 K [m/s]
[3]	948.82	944.06	939.28	–	–	–	1476.7	1458.6	1438.8
[4]	–	–	–	1.43055	1.4284	1.4261	–	–	–

CN(C)C=O [dimethylformamide] + CCC(C)=O
x1 = 1
Conditions	mass density, 293.15 K [kg/m3]	mass density, 298.15 K [kg/m3]	mass density, 303.15 K [kg/m3]	refractive index, 293.15 K	refractive index, 298.15 K	refractive index, 303.15 K	speed of sound, 293.15 K [m/s]	speed of sound, 298.15 K [m/s]	speed of sound, 303.15 K [m/s]
[3]	948.82	944.06	939.28	–	–	–	1476.7	1458.6	1438.8
[4]	–	–	–	1.43055	1.4284	1.4261	–	–	–

CCCCCC(C)=O [2-heptanone] + CN(C)C=O
298.15 K
Conditions	mass density, [3] [kg/m3]	refractive index, [4]	speed of sound, [3] [m/s]
x2 = 0	811.08	1.40688	1262.7
x2 = 0.053	815.095	1.40756	1268.2
x2 = 0.0936	818.298	1.40811	1272.9
x2 = 0.1502	822.964	1.4089	1279
x2 = 0.2011	827.389	1.40962	1285.3
x2 = 0.2495	831.808	1.41034	1291.3
x2 = 0.296	836.272	1.41107	1297.5
x2 = 0.3419	840.896	1.41182	1304
x2 = 0.3963	846.646	1.41276	1312.2
x2 = 0.4324	850.691	1.41341	1318
x2 = 0.4957	858.13	1.41462	1328.7
x2 = 0.5537	–	1.41582	–
x2 = 0.5985	871.481	1.41679	1348.2
x2 = 0.6368	876.894	1.41766	1356.2
x2 = 0.6999	886.398	1.41919	1370.3
x2 = 0.7433	893.368	1.42032	1380.8
x2 = 0.8482	911.958	1.42329	1408.7
x2 = 0.8634	914.867	1.42376	1413.1
x2 = 0.8985	921.855	1.42488	1423.7
x2 = 0.948	932.305	1.42651	1439.5

CC(C)=O [acetone]
Conditions	mass density, 293.15 K [kg/m3]	mass density, 298.15 K [kg/m3]	mass density, 303.15 K [kg/m3]	refractive index, 293.15 K	refractive index, 298.15 K	speed of sound, 293.15 K [m/s]	speed of sound, 298.15 K [m/s]	speed of sound, 303.15 K [m/s]
[1]	790.19	784.43	778.63	–	–	1183.6	1163.6	1139.9
[2]	–	–	–	1.35845	1.35386	–	–	–

CN(C)C=O [dimethylformamide]
Conditions	mass density, 293.15 K [kg/m3]	mass density, 298.15 K [kg/m3]	mass density, 303.15 K [kg/m3]	refractive index, 293.15 K	refractive index, 298.15 K	refractive index, 303.15 K	speed of sound, 293.15 K [m/s]	speed of sound, 298.15 K [m/s]	speed of sound, 303.15 K [m/s]
[1]	948.82	944.06	939.28	–	–	–	1476.7	1458.6	1438.8
[2]	–	–	–	1.43055	1.4284	1.4261	–	–	–

CN(C)C=O [dimethylformamide] + CCCCCC(C)=O
298.15 K, x1 = 1
Conditions	mass density [kg/m3]	refractive index	speed of sound [m/s]
[3]	944.06	–	1458.6
[4]	–	1.4284	–

CN(C)C=O [dimethylformamide] + CC(C)=O
x1 = 1
Conditions	mass density, 293.15 K [kg/m3]	mass density, 298.15 K [kg/m3]	mass density, 303.15 K [kg/m3]	refractive index, 293.15 K	refractive index, 298.15 K	speed of sound, 293.15 K [m/s]	speed of sound, 298.15 K [m/s]	speed of sound, 303.15 K [m/s]
[3]	948.82	944.06	939.28	–	–	1476.7	1458.6	1438.8
[4]	–	–	–	1.43055	1.4284	–	–	–

CCCCCC(C)=O [2-heptanone]
Conditions	mass density, 293.15 K [kg/m3]	mass density, 298.15 K [kg/m3]	mass density, 303.15 K [kg/m3]	refractive index, 298.15 K	speed of sound, 293.15 K [m/s]	speed of sound, 298.15 K [m/s]	speed of sound, 303.15 K [m/s]
[1]	815.39	811.08	806.81	–	1282.1	1262.7	1244.4
[2]	–	–	–	1.40688	–	–	–

CCC(C)=O [butanone]
Conditions	mass density, 293.15 K [kg/m3]	mass density, 298.15 K [kg/m3]	mass density, 303.15 K [kg/m3]	refractive index, 293.15 K	refractive index, 298.15 K	refractive index, 303.15 K	speed of sound, 293.15 K [m/s]	speed of sound, 298.15 K [m/s]	speed of sound, 303.15 K [m/s]
[1]	805.06	799.78	794.55	–	–	–	1212.6	1191.5	1172
[2]	–	–	–	1.37872	1.37605	1.37351	–	–	–
